SMILES	logP
Clc1ccc(C(Cn2ccnc2)OCC2CCCCC2)c(Cl)c1 (stereo unspecified)	6.5
CCC(CC)OC(Cn1ccnc1)c1ccc(Cl)cc1Cl (stereo unspecified)	5.13
C=C(C)COC(Cn1ccnc1)c1ccc(Cl)cc1Cl (stereo unspecified)	4.26
CCCC(C)OC(Cn1ccnc1)c1ccc(Cl)cc1Cl (stereo unspecified)	4.9
CCCCC(CC)COC(Cn1ccnc1)c1ccc(Cl)cc1Cl (stereo unspecified)	6.89
CC(C)=CCOC(Cn1ccnc1)c1ccc(Cl)cc1Cl (stereo unspecified)	5.04
CCC(C)OC(Cn1ccnc1)c1ccc(Cl)cc1Cl (stereo unspecified)	4.5
C=CCCCOC(Cn1ccnc1)c1ccc(Cl)cc1Cl (stereo unspecified)	4.94
CC(C)CCOC(Cn1ccnc1)c1ccc(Cl)cc1Cl (stereo unspecified)	5.71
C=CCCOC(Cn1ccnc1)c1ccc(Cl)cc1Cl (stereo unspecified)	4.33
CCC(CC)COC(Cn1ccnc1)c1ccc(Cl)cc1Cl (stereo unspecified)	6.24

Reference: the SangsterLogP compilation
